Source: the NIST ThermoML archive (doi:10.1016/j.fluid.2015.03.040)
Numbers after ± are expanded uncertainties.

Tests used:
[1] = 298.15 K; for surface tension liquid-gas: Maximal bubble pressure; for mass density: 101.33 kPa, Liquid, Vibrating tube method
[2] = refractive index (Na D-line) (dimensionless); conditions: 298.15 K; 101.33 kPa; Liquid; Standard Abbe refractometry
[3] = 101 kPa, Liquid mixture 1, Drop volume

surface tension liquid-gas [1] [mN/m] | mass density [1] [kg/m3] | refractive index [2] | interfacial tension ([3]; 278.15 K) [mN/m] | interfacial tension ([3]; 288.15 K) [mN/m] | interfacial tension ([3]; 298.15 K) [mN/m] | interfacial tension ([3]; 308.15 K) [mN/m] | interfacial tension ([3]; 318.15 K) [mN/m] | interfacial tension ([3]; 328.15 K) [mN/m] | interfacial tension ([3]; 338.15 K) [mN/m] | interfacial tension ([3]; 348.15 K) [mN/m] | interfacial tension ([3]; 358.15 K) [mN/m] | SMILES
19.73 ± 0.17 | 736.65 ± 0.14 | 1.37468 ± 0.00031 | – | – | – | – | – | – | – | – | – | CCOC(C)(C)C [2-ethoxy-2-methylpropane]
– | – | – | 14 ± 0.11 | 15.5 ± 0.12 | 16.6 ± 0.12 | 17.8 ± 0.13 | 18.7 ± 0.13 | 19.3 ± 0.14 | – | – | – | CCOC(C)(C)C [2-ethoxy-2-methylpropane] + O
20.3 ± 0.17 | 765.91 ± 0.14 | 1.38736 ± 0.00032 | – | – | – | – | – | – | – | – | – | CCC(C)(C)OC [2-methoxy-2-methylbutane]
– | – | – | 12.2 ± 0.1 | 13.2 ± 0.11 | 14.5 ± 0.11 | 15.5 ± 0.12 | 16.3 ± 0.12 | 17 ± 0.13 | 17.5 ± 0.13 | – | – | CCC(C)(C)OC [2-methoxy-2-methylbutane] + O
17.5 ± 0.16 | 735.31 ± 0.14 | 1.36764 ± 0.00031 | – | – | – | – | – | – | – | – | – | COC(C)(C)C [2-methoxy-2-methylpropane]
– | – | – | 7.8 ± 0.08 | 8.83 ± 0.09 | 9.8 ± 0.09 | 10.8 ± 0.1 | 11.7 ± 0.1 | – | – | – | – | COC(C)(C)C [2-methoxy-2-methylpropane] + O
– | – | – | 1.49 ± 0.05 | 1.63 ± 0.05 | 1.68 ± 0.05 | 1.69 ± 0.05 | 1.63 ± 0.05 | 1.54 ± 0.05 | 1.39 ± 0.05 | 1.2 ± 0.05 | 1.04 ± 0.05 | CCCCO [butan-1-ol] + O
16.9 ± 0.16 | 718.89 ± 0.15 | 1.3665 ± 0.00031 | – | – | – | – | – | – | – | – | – | CC(C)OC(C)C [diisopropyl ether]
– | – | – | 15.2 ± 0.12 | 16.3 ± 0.12 | 17.7 ± 0.13 | 18.7 ± 0.13 | 19.7 ± 0.14 | 21.1 ± 0.15 | – | – | – | CC(C)OC(C)C [diisopropyl ether] + O
27.4 ± 0.21 | 818.93 ± 0.11 | 1.42384 ± 0.00031 | – | – | – | – | – | – | – | – | – | CCCCCCCO [heptan-1-ol]
– | – | – | 6.61 ± 0.08 | 7.09 ± 0.08 | 7.4 ± 0.08 | 7.56 ± 0.08 | 7.73 ± 0.08 | 7.96 ± 0.08 | 7.9 ± 0.08 | 7.82 ± 0.08 | 7.74 ± 0.08 | CCCCCCCO [heptan-1-ol] + O
– | – | – | 5.77 ± 0.07 | 6.06 ± 0.07 | 6.29 ± 0.08 | 6.16 ± 0.08 | 6.18 ± 0.08 | 6.29 ± 0.08 | 6.14 ± 0.08 | 6 ± 0.07 | – | CCCCCCO [hexan-1-ol] + O
28 ± 0.2 | 822.25 ± 0.11 | 1.42884 ± 0.00031 | – | – | – | – | – | – | – | – | – | CCCCCCCCO [octan-1-ol]
– | – | – | 6.99 ± 0.08 | 7.53 ± 0.08 | 7.97 ± 0.08 | 8.41 ± 0.09 | 8.62 ± 0.09 | 8.67 ± 0.09 | 8.81 ± 0.09 | – | – | CCCCCCCCO [octan-1-ol] + O
24.7 ± 0.2 | 810.89 ± 0.12 | 1.40941 ± 0.00032 | – | – | – | – | – | – | – | – | – | CCCCCO [pentan-1-ol]
– | – | – | 3.96 ± 0.07 | 4.24 ± 0.07 | 4.35 ± 0.07 | 4.5 ± 0.07 | 4.51 ± 0.07 | 4.43 ± 0.07 | 4.37 ± 0.07 | 4.21 ± 0.07 | 3.94 ± 0.07 | CCCCCO [pentan-1-ol] + O
28 ± 0.21 | 879.44 ± 0.09 | 1.42004 ± 0.00031 | – | – | – | – | – | – | – | – | – | C1CCOCC1 [tetrahydropyran]
– | – | – | 4.64 ± 0.07 | 5.19 ± 0.07 | 5.78 ± 0.07 | 6.35 ± 0.08 | 6.75 ± 0.08 | 7.28 ± 0.08 | 7.45 ± 0.08 | – | – | C1CCOCC1 [tetrahydropyran] + O
71.94 ± 0.41 | 996.7 ± 0.04 | 1.33374 ± 0.00031 | – | – | – | – | – | – | – | – | – | O [water]
